From ChEMBL document CHEMBL5252614, “Dioncophyllidine E: The first configurationally semi-stable, 7,3'-coupled naphthyldihydroisoquinoline alkaloid, from Ancistrocladus abbreviatus, with antiausterity activity against PANC-1 human pancreatic cancer cells” (2023) come the findings set out here.

Common to all, as to format: functional
For assay [1], the system named is PANC-1. The assay can be described thus: Induction of cell death in human PANC-1 cells assessed as increase in cells emitting red fluorescence incubated for 24 hrs in nutrient-deprived medium by ethidium bromide/acridine orange staining based analysis. The following applies: dose 10-20 µM.
Assay [2] deals with PANC-1. Kind of assay: Induction of cell death in human PANC-1 cells assessed as alteration in cell morphology incubated for 24 hrs in nutrient-deprived medium by ethidium bromide/acridine orange staining based analysis. The following applies: dose 10-20 µM.
Assay [3] deals with PANC-1. The assay can be described thus: Inhibition of colony formation in human PANC1 cells assessed as colony area at 20 uM incubated for 24 hrs in normal nutrient DMEM media followed by replacement with fresh media and further incubated for 10 days (reference value: 52%). Set-up: scale not given: the % may be the effect or the level left.
Assay [4] deals with PANC-1. The assay can be described thus: Inhibition of colony formation in human PANC1 cells assessed as colony area at 10 uM incubated for 24 hrs in normal nutrient DMEM media followed by replacement with fresh media and further incubated for 10 days (reference value: 52%). Set-up: scale not given: the % may be the effect or the level left.
Assay [5] relates to PANC-1. The assay can be described thus: Inhibition of colony formation in human PANC1 cells assessed as colony area at 40 uM incubated for 24 hrs in normal nutrient DMEM media followed by replacement with fresh media and further incubated for 10 days (reference value: 52%). More on the design: scale not given: the % may be the effect or the level left.
For assay [6], the system named is PANC-1. The assay can be described thus: Preferential cytotoxicity against human PANC-1 cells in nutrient-deprived medium.

As for `COc1cccc2cc(C)c(-c3ccc4c(c3O)C(C)=N[C@H](C)C4)c(O)c12`, the Activity entry in the assay with PANC-1 [1] was “Dose-Dependent Effect”; in the assay on PANC-1 [2] it was “Dose-Dependent Effect”; in the assay on PANC-1 [3] it was 38%; in the assay with PANC-1 [4] it was 47%; with PANC-1 [5], 24%. Besides, the PC50 in the assay on PANC-1 [6] came out at 7.4 µM.
